Assay results taken from PMC5596366, “Cytotoxicity and genotoxicity of stilbene derivatives in CHO-K1 and HepG2 cell lines” (Genetics and Molecular Biology, 2017).
“Also recorded” adds a separate entry of the source.

Tests used:
[1] = test system: colon and intestinal tumors; parameters: method as in Schneider et al., 2001; conditions: Min mice; ref Schneider et al., 2001; cited from earlier work
HT-29 xenografts = test system: HT-29 xenografts; parameters: method as in Paul et al. (2010); conditions: HT-29 xenografts model of colon cancer; ref Paul et al. (2010); cited from earlier work
Colo 205 xenograft = test system: Colo 205 xenograft; parameters: method as in Pan et al., 2008; conditions: Colo 205 xenograft model of colon cancer; ref Pan et al., 2008; cited from earlier work
CHO-K1 cells [2] = assay: Cytokinesis-block micronucleus assay (CBMN); format: cell-based; conditions: for mean micronucleus (MN) frequency: 24 h
Description: (§1) CHO-K1 and HepG2 cells were obtained from the Cell Bank of Rio de Janeiro (BCRJ code 0069 and 0103, respectively) and cultured in complete medium containing DMEM+F10 nutrient mixture (1:1, v/v), supplemented with fetal bovine serum (10%, v/v) and penicillin/streptomycin stabilized solution (10 mL/L). Cell cultures were incubated at 37 °C with atmosphere saturated with 5% of CO2. All experiments were conducted between the 3rd and the 8th passages and three experimental repetitions were performed.
(§2) Doxorubicin (DOX) was dissolved in ultrapure sterile water in a stock solution of 900 μM. All reagents were dissolved prior to use and protected from light. For all experiments, cells were submitted to 24 h treatment with different concentrations of the tested substance and DOX was used as positive control in CHO-K1 cells. Benzo(a)pyrene [B(a)P] at 25 μM was used as positive control in HepG2 cells.
(§3) For the micronucleus test, 10^6 cells were seeded in […] culture flasks containing complete medium. Cell cultures were allowed to grow for 24 h, then treated with different concentrations of the stilbene derivatives. Simultaneously, cytochalasin B (6 μg/mL) was added to each cell culture to inhibit cytokinesis. After 24 h of incubation, cells were harvested with a hypotonic treatment (KCl 0.075 M) and fixed twice with methanol:acetic acid (3:1). Thereafter, the cell suspension was smeared on pre-cleaned microscope slides and air-dried. Staining was performed during 15 min with Giemsa at 5% in Sorensen Buffer (v/v). Microscope slides were washed in tap water and allowed to dry at room temperature overnight. The frequency of micronucleus (MN), frequency of binucleated cells with micronucleus (BCMN) and frequency of nucleoplasmic bridges (NB) were obtained by the analysis of 1000 binucleated cell/culture/treatment as previously described by [Fenech (2000)]. A total of 500 cells/culture/treatment were analyzed to determine the Nuclear Division Index (NDI) by scoring cells with 1, 2, 3 or 4 nuclei and using the formula: NDI= M1+2(M2)+3(M3)+4(M4)/N, where, M1–M4 stand for the number of cells with 1–4 nuclei and N is the total number of viable cells analyzed.

HepG2 cells [3] = assay: Cytokinesis-block micronucleus assay (CBMN); format: cell-based; conditions: for nuclear bridges (NB): HepG2; for mean micronucleus (MN) frequency: 24 h
Description: as §1, §2, §3

CHO-K1 cells [4] = assay: Clonogenic survival assay; format: cell-based; conditions: for survival fraction: 24 h treatment
Description: as §1, §2
(§4) The clonogenic assay was performed according to [Franken et al. (2006)]. Briefly, 200 cells/well were plated in 6 well plates containing 3 mL of complete medium. After 4 h of incubation at 37 °C, the cells were treated with different concentrations of the testing stilbenes for 24 h, then each well was washed with PBS 1X and complete medium was added. The cells were allowed to grow for 7–14 days at 37 °C and 5% of CO2, when colonies were visible. The colonies formed were fixed with methanol/acetic acid/water (1:1:8 v/v/v) and stained with Giemsa 5% (v/v) in Sorensen phosphate buffer (pH 6.8). The colonies were counted, and the cell survival fraction was calculated as percent colonies relative to the untreated control.

HepG2 cells [5] = assay: Clonogenic survival assay; format: cell-based; conditions: for survival fraction: 24 h treatment
Description: as §1, §2, §4

[6] = parameters: method as in Paul et al. (2010); conditions: in vivo; ref Paul et al. (2010); cited from earlier work
[7] = Cell viability assay (XTT), 24 h treatment; format: cell-based
Description: as §1, §2
To determine cell viability, 10^4 cells/well were seeded on a 96-well plate. […] The plates were washed twice in phosphate buffer saline (PBS 1X) and incubated for 4 h at 37 °C with DMEM without phenol red and supplemented with the reagents of the Cell Proliferation Kit (XTT) as recommended by the manufacturer. Total absorbance was measured at 492 and 690 nm (reference) using a microplate reader (ASYS, Eugendorf, Salzburg, Austria).

Caco-2 cells = test system: Caco-2 cells; parameters: method as in Schneider et al. (2003); conditions: ref Schneider et al. (2003); cited from earlier work
[8] = test system: colonic aberrant crypt foci (ACF); parameters: method as in Suh et al., 2007; conditions: ref Suh et al., 2007; cited from earlier work
tubulin = test system: tubulin; parameters: method as in Schneider et al. (2003); conditions: ref Schneider et al. (2003); cited from earlier work
[9] = test system: CHO-K1 and HepG2 cell lines; assay: Clonogenic survival assay, statements not split by cell line; conditions: based on clonogenic survival assay
Description: as §1, §2
as §4, with “The cells were allowed to grow for 7–14 days at 37 °C and 5% of CO2, when colonies were visible. The colonies formed were fixed with methanol/acetic acid/water (1:1:8 v/v/v) and stained with Giemsa 5% (v/v) in Sorensen phosphate buffer (pH 6.8).” left out

[10] = Chinese hamster, CHO-K1, 7.8 μM (lowest concentration)
[11] = human, HepG2, 7.8 μM (lowest concentration)

## Oc1ccc(/C=C/c2cc(O)cc(O)c2)cc1 [Resveratrol]
[1]
  prevention of formation of colon and intestinal tumors: 70%

## COc1ccc(/C=C/c2cc(OC)cc(OC)c2)cc1 [trans-TMS, (E)-1,3-dimethoxy-5-(4-methoxystyryl)benzene]
HT-29 xenografts
  effect on tumor (volume, weight) in vivo: significantly reduced tumor volume; also recorded: significantly decreased tumor volume and weight
Colo 205 xenograft
  tumor growth: significantly reduced tumor growth
CHO-K1 cells [2]; CHO-K1, all concentrations, compared to NC
  micronucleus (MN) frequency, result in words: no significant MN frequency
HepG2 cells [3]
  nuclear bridges (NB): No significant induction
HepG2 cells [3]; HepG2, all tested concentrations
  micronucleus (MN) frequency, result in words: significantly increased
CHO-K1 cells [4]; CHO-K1 (stated for both cell lines)
  concentration from which colony formation is significantly reduced: 5 µM
CHO-K1 cells [4]; CHO-K1, 2.5-20 μM
  frequency of survival fraction, result in words: significant concentration-dependent reduction
HepG2 cells [5]; HepG2 (stated for both cell lines)
  concentration from which colony formation is significantly reduced: 5 µM
HepG2 cells [5]; HepG2, 2.5-20 μM
  frequency of survival fraction, result in words: significant concentration-dependent reduction
[6]
  serum levels: much higher serum levels than the cis-TMS
[7]; [10]
  viability at 24 h, 7.8 µM: 62.5%
[7]; [11]
  viability at 24 h, 7.8 µM: 59.1%
Caco-2 cells
  fold less effective in inhibiting the growth of Caco-2 cells than the cis isomer: 100 fold

## COc1cc(/C=C/c2ccc(O)cc2)cc(OC)c1 [pterostilbene]
[8]
  formation of azoxymethane-induced colonic aberrant crypt foci (ACF): reduced the formation

## COc1ccc(/C=C\c2cc(OC)cc(OC)c2)cc1 [cis-TMS, (Z)-1,3-dimethoxy-5-(4-methoxystyryl)benzene]
tubulin
  tubulin polymerization: inhibited tubulin polymerization in a dose-dependent manner
HT-29 xenografts
  effect on tumor (volume, weight) in vivo: not active in vivo
[9]
  fold more cytotoxic than the amino and ester: approximately 250 fold
  fold more cytotoxic than trans-TMS: 128 fold
CHO-K1 cells [2]; CHO-K1, 0.125 μM
  mean micronucleus (MN) frequency: 2.8 MN/100 cells
CHO-K1 cells [2]; CHO-K1, 0.5 μM
  mean micronucleus (MN) frequency: 5.2 MN/100 cells
HepG2 cells [3]
  nuclear bridges (NB): No significant induction
HepG2 cells [3]; HepG2, 0.125 μM
  mean micronucleus (MN) frequency: 3.5 MN/100 cells
HepG2 cells [3]; HepG2, 0.5 μM
  mean micronucleus (MN) frequency: 6.1 MN/100 cells
CHO-K1 cells [4]; CHO-K1, 0.078 μM
  survival fraction: 45.8%
CHO-K1 cells [4]; CHO-K1, 0.156 μM
  survival fraction: 36.8%
CHO-K1 cells [4]; CHO-K1, 0.3125 μM
  survival fraction: 13.9%
CHO-K1 cells [4]; CHO-K1, all concentrations tested (2.5 μM upwards)
  cells killed (clonogenic assay): 100%
HepG2 cells [5]; HepG2, 0.078 μM
  survival fraction: 41.3%
HepG2 cells [5]; HepG2, 0.156 μM
  survival fraction: 54.3%
HepG2 cells [5]; HepG2, 0.3125 μM
  survival fraction: 16.9%
HepG2 cells [5]; HepG2, 0.625 μM
  survival fraction: 6.2%
HepG2 cells [5]; HepG2, at 2.5, 5 and 10 μM
  cells killed (clonogenic assay): 100%
[6]
  bioavailability: low bioavailability
[7]; [10]
  viability at 24 h, 7.8 µM: 60.7%
[7]; [11]
  viability at 24 h, 7.8 µM: 49%
Caco-2 cells
  cell cycle effect in Caco-2 cells: arrest of the cell cycle progression at the G2/M transition phase
